In paper PMC3574584 (Journal of medicinal chemistry, 2013):
Entries after “also recorded” stand apart in the source; their conditions may differ.

Test system: Raw264.7 cells expressing mPTPB
Experiment: Akt phosphorylation by Western blotting
Format: cell-based, mouse
Details: mPTPB expressing Raw264.7 macrophages, IFN-γ 200 U/ml; 6c at 240 nM

SMILES	Akt activity (phospho-Akt)
O=C(O)c1cc2c(CCc3ccc(OC(F)(F)F)cc3)c(-c3ccccc3)oc2cc1O [Compound 6c, 6-hydroxy-2-phenyl-3-(4-(trifluoromethoxy)phenethyl)benzofuran-5-carboxylic acid]	unable to reverse
O=C(O)c1cc2c(C#Cc3cccc(C(F)(F)F)c3)c(-c3ccccc3)oc2cc1O [Compound 4g, 6-hydroxy-2-phenyl-3-((3-(trifluoromethyl)phenyl)ethynyl)benzofuran-5-carboxylic acid]	normalized; also recorded: blocks
